Measured values from patent US20260223850A1, “SUBSTITUTED PYRROLIDONE COMPOUND, PREPARATION METHOD THEREFOR, COMPOSITION AND APPLICATION THEREOF” (QINGDAO KINGAGROOT CHEMICAL COMPOUND CO., LTD., priority 2023, published 2026).

What was measured:
Type in all cases: in vivo
[1] = tested on: Echinochloa phyllopogon; assay: Seedling stage sealing experiment for water-seeding; conditions: 120 g a.i./ha, 15 days, fresh weight control rate
How it was run: (§1)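 Read-out: 0–9 damage level from fresh-weight control rate (9 = completely dead, 1 = under 10%, 0 = no effect), averaged over triplicates, taken 15 days after spraying. Doses were 120, 60, 30 and 15 g a.i./ha, acetone/water solution, spray tower.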

[2] = tested on: Echinochloa crusgalli; assay: as above; conditions: 120 g a.i./ha, 15 days, fresh weight control rate
[3] = tested on: Huaidao (rice cultivar); assay: Seedling stage sealing experiment for water-seeding (crop safety); conditions: 120 g a.i./ha, 15 days, fresh weight control rate; for Huaidao (rice cultivar) plant damage level: seedling stage sealing; for Huaidao (rice cultivar) plant damage level (growth control rate): spray, seedling stage sealing for water-seeding
How it was run: as §1

[4] = tested on: Leptochloa chinensis; assay: Seedling stage sealing experiment for water-seeding; conditions: 120 g a.i./ha, 15 days, fresh weight control rate
How it was run: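 Seeds sown in soil-filled bowls kept moist in water-filled boxes; compound in acetone diluted with water and spray-applied at 120, 60, 30 and 15 g a.i./ha, triplicate. After 15 days in greenhouse, fresh-weight growth control scored on a 0–9 scale (9 = dead, 0 = no effect), averaged.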

[5] = tested on: Digitaria sanguinalis; assay: as above; conditions: 120 g a.i./ha, 15 days, fresh weight control rate
How it was run: as §1

[6] = spray, seedling stage sealing for water-seeding

| Structure (SMILES) | Echinochloa phyllopogon activity level (growth control rate) ([1]; seedling stage sealing) | Echinochloa crusgalli activity level (growth control rate) ([2]; seedling stage sealing) | Huaidao (rice cultivar) plant damage level [3] | Leptochloa chinensis activity level (growth control rate) [4] | Digitaria sanguinalis activity level (growth control rate) [5, 6] | Echinochloa phyllopogon activity level (growth control rate) [1, 6] | Echinochloa crusgalli activity level (growth control rate) [2, 6] | Huaidao (rice cultivar) plant damage level (growth control rate) [3] | Digitaria sanguinalis activity level (growth control rate) ([5]; seedling stage sealing) |
| --- | --- | --- | --- | --- | --- | --- | --- | --- | --- |
| Cc1cccc([C@H]2CN(C)C(=O)[C@@H]2C(=O)Nc2cnn(C)c2Cl)c1 [17′] | 6 (Level 6: growth control rate greater than or equal to 70% and less than 80%) | 9 | 0 | 9 | – | – | – | – | – |
| CCn1ncc(NC(=O)[C@H]2C(=O)N(C)C[C@@H]2c2cccc(C)c2)c1F [523′] | – | – | – | – | 9 | 6 (Level 6: growth control rate greater than or equal to 70% and less than 80%) | 9 | 0 | – |
| Cc1cccc([C@H]2CN(C)C(=O)[C@@H]2C(=O)Nc2cnn(C)c2C(F)F)c1 [524′] | – | – | – | – | 9 | 9 | 9 | 2 (Level 2: growth control rate greater than or equal to 10% and less than 20%) | – |
| CCn1ncc(NC(=O)[C@H]2C(=O)N(C)C[C@@H]2c2cccc(C)c2)c1C(F)(F)F [525′] | – | – | – | – | 9 | 9 | 9 | 2 (Level 2: growth control rate greater than or equal to 10% and less than 20%) | – |
| Cc1cccc([C@H]2CN(C)C(=O)[C@@H]2C(=O)Nc2cnn(C(C)C)c2C(F)(F)F)c1 [526′] | – | – | – | – | 9 | 6 (Level 6: growth control rate greater than or equal to 70% and less than 80%) | 9 | 0 | – |
| Cc1cccc([C@H]2CN(C)C(=O)[C@@H]2C(=O)Nc2cnn(C3CC3)c2C(F)(F)F)c1 [527′] | – | – | – | – | 9 | 6 (Level 6: growth control rate greater than or equal to 70% and less than 80%) | 9 | 0 | – |
| Cc1cccc([C@H]2CN(C)C(=O)[C@@H]2C(=O)Nc2cnn(C)c2S(C)(=O)=O)c1 [531′] | – | – | – | – | 9 | 9 | 9 | 0 | – |
| CO/N=C/c1c(NC(=O)[C@H]2C(=O)N(C)C[C@@H]2c2cccc(C)c2)cnn1C [532′] | – | – | – | – | 9 | 6 (Level 6: growth control rate greater than or equal to 70% and less than 80%) | 9 | 0 | – |
| CCn1ncc(NC(=O)[C@H]2C(=O)N(C)C[C@@H]2c2cccc(C(F)(F)F)c2)c1F [533′] | – | – | – | – | 9 | 9 | 9 | 0 | – |
| CN1C[C@H](c2cccc(C(F)(F)F)c2)[C@@H](C(=O)Nc2cnn(C)c2C(F)(F)F)C1=O [538′] | – | – | – | – | 9 | 9 | 9 | – | – |
| CN1C[C@H](c2cccc(C(F)(F)F)c2)[C@@H](C(=O)Nc2cnn(C)c2[S+](C)[O-])C1=O (stereo partly shown) [539′] | – | – | – | – | 6 (Level 6: growth control rate greater than or equal to 70% and less than 80%) | – | 9 | 0 | – |
| CCc1c(NC(=O)[C@H]2C(=O)N(C)C[C@@H]2c2cc(C)cc(C)c2)cnn1C(F)F [544′] | – | – | – | – | 9 | 9 | 9 | – | – |
| COCn1ncc(NC(=O)[C@H]2C(=O)N(C)C[C@@H]2c2cc(C)cc(C)c2)c1C1CC1 [549′] | – | – | – | – | 9 | 9 | 9 | – | – |
| Cc1cc(C)cc([C@H]2CN(C)C(=O)[C@@H]2C(=O)Nc2cnn(C)c2[S+](C)[O-])c1 (stereo partly shown) [552′] | – | – | – | – | 9 | – | 9 | 0 | – |
| COCc1c(NC(=O)[C@H]2C(=O)N(C)C[C@@H]2c2cc(C)cc(C)c2)cnn1C [553′] | – | – | – | – | 9 | – | 9 | 2 (Level 2: growth control rate greater than or equal to 10% and less than 20%) | – |
| CN1C[C@H](c2cc(Br)cc(C(F)(F)F)c2)[C@@H](C(=O)Nc2cnn(C(F)F)c2Cl)C1=O [557′] | – | – | – | – | 9 | 6 (Level 6: growth control rate greater than or equal to 70% and less than 80%) | 9 | – | – |
| CN1CC(c2cccc(C(F)(F)F)c2)C(C(=O)Nc2cnn(C)c2Cl)C1=O (stereo not shown) [Compound 1] | 9 | 9 | – | – | – | – | – | – | 9 |
| CN1CC(c2cccc(F)c2)C(C(=O)Nc2cnn(C)c2Cl)C1=O (stereo not shown) [Compound 15] | 6 (Level 6: growth control rate greater than or equal to 70% and less than 80%) | 9 | – | – | – | – | – | – | 9 |
| C=CCOc1cccc(C2CN(C)C(=O)C2C(=O)Nc2cnn(C)c2Cl)c1 (stereo not shown) [Compound 30] | 9 | 9 | – | – | – | – | – | – | 9 |
| CN1CC(c2ccc(F)c(C(F)(F)F)c2)C(C(=O)Nc2cnn(C)c2Cl)C1=O (stereo not shown) [Compound 54] | 9 | 9 | 0 | 9 | – | – | – | – | – |
| CN1CC(c2ccc(F)c(F)c2)C(C(=O)Nc2cnn(C)c2Cl)C1=O (stereo not shown) [Compound 116] | 6 (Level 6: growth control rate greater than or equal to 70% and less than 80%) | 7 (Level 7: growth control rate greater than or equal to 80% and less than 90%) | – | – | – | – | – | – | 9 |
| CN1CC(c2ccccc2)C(C(=O)Nc2cnn(C)c2Cl)C1=O (stereo not shown) [Compound 121] | 9 | 9 | 0 | 6 (Level 6: growth control rate greater than or equal to 70% and less than 80%) | – | – | – | – | – |
| CN1CC(c2cccc(C(F)(F)F)c2)C(C(=O)Nc2cnn(C(F)F)c2)C1=O (stereo not shown) [Compound 159] | 6 (Level 6: growth control rate greater than or equal to 70% and less than 80%) | 7 (Level 7: growth control rate greater than or equal to 80% and less than 90%) | – | – | – | – | – | – | 9 |
| CN1CC(c2ccc(C(F)(F)F)cc2)C(C(=O)Nc2cnn(C)c2Cl)C1=O (stereo not shown) [Compound 249] | 8 (Level 8: growth control rate greater than or equal to 90% and less than 100%) | 8 (Level 8: growth control rate greater than or equal to 90% and less than 100%) | – | – | – | – | – | – | 9 |
| CN1CC(c2cc(F)c(F)c(F)c2)C(C(=O)Nc2cnn(C)c2F)C1=O (stereo not shown) [Compound 323] | 5 (Level 5: growth control rate greater than or equal to 50% and less than 70%) | 5 (Level 5: growth control rate greater than or equal to 50% and less than 70%) | – | 6 (Level 6: growth control rate greater than or equal to 70% and less than 80%) | – | – | – | – | – |
| CN1CC(c2cc(F)c(F)c(F)c2)C(C(=O)Nc2c(O)nn(C)c2F)C1=O (stereo not shown) [Compound 324] | 7 (Level 7: growth control rate greater than or equal to 80% and less than 90%) | 7 (Level 7: growth control rate greater than or equal to 80% and less than 90%) | – | 9 | – | – | – | – | – |
| COc1c(Cl)ccc(C2CN(C)C(=O)C2C(=O)Nc2c(O)nn(C)c2F)c1F (stereo not shown) [Compound 331] | 7 (Level 7: growth control rate greater than or equal to 80% and less than 90%) | 9 | – | 9 | – | – | – | – | – |
| CCn1cc(NC(=O)C2C(=O)N(C)CC2c2cccc(C(F)(F)F)c2)cn1 (stereo not shown) [Compound 456] | – | – | – | – | 9 | – | 7 (Level 7: growth control rate greater than or equal to 80% and less than 90%) | 0 | – |
| CN1CC(c2cccc(C(F)(F)F)c2)C(C(=O)Nc2cn(C)nc2C(F)F)C1=O (stereo not shown) [Compound 457] | – | – | – | – | 9 | – | – | 0 | – |
| CN1CC(c2ccc(C(F)(F)F)cc2)C(C(=O)Nc2c[nH]nc2Cl)C1=O (stereo not shown) [Control compound A, reference compound] | – | – | – | – | 0 | 0 | 0 | – | – |
